Values quoted from earlier work in patent publication US7070816B2, “Methods for treating prostatic intraepithelial neoplasia with herbal compositions” (New Chapter, Inc., priority 2003, dated 2006).

Assays:
COX-2 = molecular target: T1, COX-2 (Homo sapiens, UniProt P35354)
T1 sequence (P35354 18-604): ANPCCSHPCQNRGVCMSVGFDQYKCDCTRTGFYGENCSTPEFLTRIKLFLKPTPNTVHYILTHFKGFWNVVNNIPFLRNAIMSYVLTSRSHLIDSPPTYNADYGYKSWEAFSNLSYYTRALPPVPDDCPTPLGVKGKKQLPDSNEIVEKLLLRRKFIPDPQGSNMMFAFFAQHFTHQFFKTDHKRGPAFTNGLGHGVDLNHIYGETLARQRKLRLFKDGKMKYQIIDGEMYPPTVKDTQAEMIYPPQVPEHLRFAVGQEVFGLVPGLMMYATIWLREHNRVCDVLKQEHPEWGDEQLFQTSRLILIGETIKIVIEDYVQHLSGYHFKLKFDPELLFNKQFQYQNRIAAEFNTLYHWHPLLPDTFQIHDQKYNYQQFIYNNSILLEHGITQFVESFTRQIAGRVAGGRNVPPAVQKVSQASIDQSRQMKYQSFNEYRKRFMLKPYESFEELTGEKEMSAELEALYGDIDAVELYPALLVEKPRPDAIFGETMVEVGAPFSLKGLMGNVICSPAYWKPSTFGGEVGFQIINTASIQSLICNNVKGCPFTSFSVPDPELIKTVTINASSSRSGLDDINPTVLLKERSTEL

COX-1 = COX-1 (Homo sapiens, UniProt P23219)
5-lipoxygenase = molecular target: T2, 5-lipoxygenase (Homo sapiens, UniProt P09917)
T2 sequence (P09917 1-674): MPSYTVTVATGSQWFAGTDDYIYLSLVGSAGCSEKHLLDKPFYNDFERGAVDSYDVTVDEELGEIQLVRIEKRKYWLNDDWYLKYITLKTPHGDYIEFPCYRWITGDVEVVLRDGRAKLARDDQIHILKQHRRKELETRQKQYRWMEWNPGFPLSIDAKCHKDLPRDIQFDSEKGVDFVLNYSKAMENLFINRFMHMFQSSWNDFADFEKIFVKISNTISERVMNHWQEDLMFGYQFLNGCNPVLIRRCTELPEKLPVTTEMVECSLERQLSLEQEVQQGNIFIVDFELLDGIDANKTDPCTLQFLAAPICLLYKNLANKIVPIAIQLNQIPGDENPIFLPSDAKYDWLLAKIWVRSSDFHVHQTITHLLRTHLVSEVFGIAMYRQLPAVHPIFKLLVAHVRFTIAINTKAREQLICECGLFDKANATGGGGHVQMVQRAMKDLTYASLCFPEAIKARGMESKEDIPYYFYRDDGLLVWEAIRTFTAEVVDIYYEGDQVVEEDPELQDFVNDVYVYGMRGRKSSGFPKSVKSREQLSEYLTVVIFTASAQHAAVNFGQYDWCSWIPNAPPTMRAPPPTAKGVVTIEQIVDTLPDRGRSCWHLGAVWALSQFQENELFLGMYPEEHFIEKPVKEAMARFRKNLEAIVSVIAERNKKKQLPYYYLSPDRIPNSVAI

COX-1, sequence (P23219 24-599): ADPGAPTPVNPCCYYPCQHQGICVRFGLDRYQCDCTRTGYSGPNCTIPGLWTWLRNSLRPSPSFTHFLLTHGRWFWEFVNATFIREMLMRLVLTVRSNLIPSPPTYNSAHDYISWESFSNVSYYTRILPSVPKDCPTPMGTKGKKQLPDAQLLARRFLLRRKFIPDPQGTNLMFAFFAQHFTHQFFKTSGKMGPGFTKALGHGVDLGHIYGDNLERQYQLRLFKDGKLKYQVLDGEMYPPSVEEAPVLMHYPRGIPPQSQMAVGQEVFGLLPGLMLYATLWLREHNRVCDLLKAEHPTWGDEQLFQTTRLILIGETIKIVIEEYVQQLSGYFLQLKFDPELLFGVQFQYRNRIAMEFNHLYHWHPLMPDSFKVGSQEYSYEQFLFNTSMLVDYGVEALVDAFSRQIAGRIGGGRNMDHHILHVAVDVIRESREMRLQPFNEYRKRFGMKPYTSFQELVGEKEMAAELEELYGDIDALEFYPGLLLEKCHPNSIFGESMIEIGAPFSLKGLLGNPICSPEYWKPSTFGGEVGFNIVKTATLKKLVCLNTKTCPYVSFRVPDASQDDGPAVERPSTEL

gingerols
cyclooxygenase inhibition (cyclooxygenase): inhibit cyclooxygenase

COc1ccc2cc3[n+](cc2c1OC)CCc1cc2c(cc1-3)OCO2 [Berberine]
COX-2 inhibition (COX-2): inhibit COX-2 | COX-1 inhibition (COX-1): without inhibiting COX-1 activity

O=C(O)c1ccccc1O [salicylic acid]
COX-2 inhibition (COX-2): COX-2 inhibitor

C[C@H]1[C@H](C)CC[C@]2(C(=O)O)CC[C@]3(C)C(=CC[C@@H]4[C@@]5(C)CC[C@H](O)C(C)(C)[C@@H]5CC[C@]43C)[C@H]12 [Ursolic acid]
COX-2 inhibition (COX-2): significant COX-2 inhibitory effect

C=CCc1ccc(O)c(OC)c1 [Eugenol]
5-lipoxygenase inhibition (5-lipoxygenase): 5-lipoxygenase inhibitor

Oc1cc(O)c2c(c1)O[C@H](c1ccc(O)c(O)c1)[C@@H](O)C2 [(+)-catechin]
COX-2 inhibition (COX-2): COX-1 and COX-2 inhibitors | COX-1 inhibition (COX-1): COX-1 and COX-2 inhibitors

shogaols
cyclooxygenase inhibition (cyclooxygenase): inhibit cyclooxygenase
